As a reminder, the ED50 is the dose at which the effect has come halfway, by size or by number of responders.

Several values for one entry are separate records, joined by “and”; a condition that tells them apart may be missing. Equal values may be shown once. Read-outs that look alike come from different tables or passages of the source. A value given as a limit tells only on which side of the number the result lay.

Data on seven molecules can be found in patent publication US8518979B2, “Alpha-halo- and alpha-alkyl-cyclopropylcarboxy compounds and uses thereof” (Yissum Research Development Company of the Hebrew …, priority 2007, dated 2013).

Series [1] has as its system hippocampal kindled seizures. The experiment in a line: Hippocampal kindling assay in rats. Conditions: Rattus norvegicus. The series is classed as in vivo. As for the experimental part: In a third model, the hippocampal kindling assay was used to identify new drug candidates effective for the treatment of difficult-to-control seizure types, focal seizures and complex partial seizures, as well as compounds that may be effective as mood stabilizer for treating bipolar disorder, and was conducted according to the protocol described therein.
Briefly, this test was conducted by using a bipolar stimulating electrode which was implanted in the hippocampus of rats, and the rats were kindled according to a described method. One week after implantation of the electrodes, the rats were stimulated with supra-threshold trains of 200 μA and 50 Hz for 10 seconds every 30 minutes for 6 hours on alternate days until the animals were fully kindled. […] The behavioral seizures were scored according to the following criteria (“seizure score”): stage 1—mouth and facial clonus; stage 2—stage 1 plus head nodding; stage 3—stage 2 plus forelimb clonus; stage 4—stage 3 plus rearing; and stage 5—stage 4 plus repeated rearing and falling.

The subject of the next series is 6 Hz (32 mA) seizures. Description: Psychomotor seizure (6 Hz, 32 mA) assay in mice. The format is in vivo. Conditions: Mus musculus.
For the next series, the system named is 6 Hz (44 mA) seizures. The experiment in a line: Psychomotor seizure (6 Hz, 44 mA) assay in mice. Conditions: Mus musculus. The series is classed as in vivo.
The subject of series [2] is minimal neurotoxicity. Description: Neurotoxicity (gait and stance assay, TD50) in rats. The format is in vivo, rat. The following applies: for Toxicity, fraction of rats: rat p.o, 50 mg/kg. As for the experimental part:
(§1) Neurotoxicity assays are design to assess the effect of putative neurotoxicants on the normal activity of the nervous system, which can adversely disrupt or cause neuronal death, and damage other parts of the nervous system. The median neurological toxic dose (TD50) is used for quantization of neurotoxicity.
The neurotixicity studies were conducted according to the protocol described in White, H. S., et al., in “General principles. Discovery and preclinical development of antiepileptic drugs”, 5th edition, Levy R H, Mattson R H, Meldrum B S, Perucca E. (editors); Antiepileptic drugs; Lippincott-Raven; Philadelphia: 2002. pp. 36-48.
Neurotoxicity of the α-halo-2,2,3,3-tetramethylcyclopropanecarboxy compounds of the present embodiments was assessed in rats treated therewith by oral administration and observed in the “gait and stance” assay, which assesses minimal neurotoxicity. The neurotoxicity studies were conducted according to the protocol described in White H S. et al., General principles-Discovery and preclinical development of antiepileptic drugs, in: Antiepileptic Drugs, 5th edition, R H Wilkins, Philadelphia 2002, pp. 36-48.

The subject of another series is motor impairment. Description: Toxicity observed in mice (6 Hz 44 mA test line of Table 3). The series is classed as in vivo.
Excerpt: as §1

Series [3] has as its system metrazole induced clonic seizures. The experiment in a line: Subcutaneous metrazol seizure threshold test (scMet) in rats. The following applies: for ED50: Rattus norvegicus; for Fraction of rats which responded to the treatment: scMet rat model; for ScMet, fraction of rats: rat p.o, 50 mg/kg.
Series [4] has as its system maximal electroshock induced seizures (tonic hind limb extension). The experiment in a line: Maximal electroshock seizure test (MES) in rats. The format is in vivo. The following applies: rat p.o, 50 mg/kg. In general terms: Protection in the maximal electroshock model is a classic sign of anticonvulsant action.
In another series the test system is neuropathic pain. Conditions: spinal nerve ligated rat models; cited from earlier work.
Series [5] relates to metrazole induced clonic seizures. Conditions: cited from earlier work; for protective index (TD50/ED50): comparison compounds, seizure model not stated.
Series [6] has as its system minimal neurotoxicity. Conditions: cited from earlier work.
The test system of series [7] is maximal electroshock induced seizures (tonic hind limb extension). The following applies: cited from earlier work.
In series [8] the test system is maximal electroshock induced seizures. The following applies: mice models injected intraperitoneally; cited from earlier work.
The next series concerns teratogenicity. The experiment in a line: Mouse model for VPA-induced teratogenicity. Conditions: unpublished results.
Where [9] appears, read: rat scMet models, literature comparison.

In the case of `CC1(C)C(C)(C)C1(F)C(N)=O` [Compound 1, α-fluoro-2,2,3,3-tetramethylcyclopropanecarboxamide], the ED50 in series [1] was 29.5 mg/kg and 180 µmol/kg; in the series on 6 Hz (32 mA) seizures it was < 50 mg/kg and < 310 µmol/kg; in the series with 6 Hz (44 mA) seizures it was ~50 mg/kg and ~310 µmol/kg; in series [3] (po), 6 mg/kg and 40 µmol/kg. The “Toxicity (TD50)” value with minimal neurotoxicity [2] (rats, oral administration) is listed as 117 mg/kg. The Toxicity result with motor impairment is recorded as “Minimal motor”. Further, the “protective index (TD50/ED50)” value in series [3] (rat, in vivo, po) was found to be 19.5. Further, the “Fraction of rats which responded to the treatment” value in series [3] (dose 2 mg/kg) was 0/8; in [3] (dose 6 mg/kg) it was 5/8; in [3] (dose 12.5 mg/kg), 6/8; in [3] (dose 25 mg/kg), 8/8.

As to `CC1(C)C(C)(C)C1(C)C(N)=O` [Compound 4, 1,2,2,3,3-pentamethylcyclopropanecarboxamide], the “MES, fraction of rats” value in series [4] (0.25 hours after dosing), in [4] (0.5 hours after dosing), in series [4] (1.0 hours after dosing), in [4] (2.0 hours after dosing) and in series [4] (4.0 hours after dosing) was 0/4 throughout. Also, the “Toxicity, fraction of rats” value in the series on minimal neurotoxicity [2] (0.25 hours after dosing), in the series with minimal neurotoxicity [2] (0.5 hours after dosing), with minimal neurotoxicity [2] (1.0 hours after dosing), in the series on minimal neurotoxicity [2] (2.0 hours after dosing) and in the series on minimal neurotoxicity [2] (4.0 hours after dosing) was 0/4 in each case. The ED50 in series [3] (sc, read-out: ED50 (not determined quantitatively, estimated)) is less than 50 mg/kg. For the same molecule, the “ScMet, fraction of rats” value in [3] (0.25 hours after dosing) is reported as 0/4; in [3] (0.5 hours after dosing), 0/4; in series [3] (1.0 hours after dosing), 1/4; in series [3] (2.0 hours after dosing) it was 1/4; in series [3] (4.0 hours after dosing) it was 0/4.

Turning to `CNC(=O)C1C(C)(C)C1(C)C` [Compound IV, N-methyl-2,2,3,3-tetramethylcyclopropanecarboxamide], the “potency as therapeutic for neuropathic pain” value in the series on neuropathic pain is “equipotent to GABApentin”. The “protective index (TD50/ED50)” value in [5] is given as 2. The neurotoxicity result with minimal neurotoxicity [6] (rat, in vivo) is “non-neurotoxic”.

Take `CONC(=O)C1C(C)(C)C1(C)C` [Compound VI, N-methoxy-2,2,3,3-tetramethylcyclopropanecarboxamide]: the ED50 was 57 mg/kg in series [7] (MES tests, rats injected intraperitoneally) and 9.8 mg/kg in series [5] (scMet tests, rats injected intraperitoneally).

Regarding `CC1(C)C(C(=O)Nc2nnc(S(N)(=O)=O)s2)C1(C)C` [Compound VII, N-(1,3,4-thiadiazole-2-sulfonamide)-2,2,3,3-tetramethylcyclopropanecarboxamide], the results for the MES-ED50 in series [7] (orally treated rat models) and in series [8] were 9.2 mg/kg and 17 mg/kg, respectively. For the same molecule, the neurotoxicity result in the series on minimal neurotoxicity [6] (at 500 mg/kg doses) is given as “none-neurotoxic”. For the same molecule, the teratogenicity entry with teratogenicity was “teratogenic”.

In the case of `CC1(C)C(C(=O)NCC(N)=O)C1(C)C` [N-2,2,3,3-tetramethylcyclopropylcarbonyl-glycinamide], the “protective index (TD50/ED50)” value in series [5] is “higher than 6.1”. Further, the ED50 entry in series [5] (setting [9]) is given as “greater than 250 mg/kg”. Further, the TD50 entry in the series on minimal neurotoxicity [6] (oral administration to rats, literature comparison) is listed as “above 500 mg/kg”.

As to `CC1(C)C(C(=O)NC(N)=O)C1(C)C` [TMC-Urea, 2,2,3,3-tetramethylcyclopropanecarbonyl urea], the “protective index, TD50-to-ED50 ratio” value in series [7] (maximal electroshock (MES) tests) is given as 18.5. The “protective index (TD50/ED50)” value in [5] was 18.5. Further, the ED50 in [5] (setting [9]) is reported as 92 mg/kg.
